The conditions of data set [1]: 40 nmol/Kg i.v. The procedure: NOD/SCID mice received a single i.v. injection of 40 nmol/Kg of transferrin/EpCAM aptamer with four various structures (TEPP: Bi3 transferrin^+/EpCAM^+; TEPN: transferrin^+/EpCAM^−; TENP: transferrin^−/EpCAM^+; TENN: Bi1 transferrin^−/EpCAM^−). The concentration of aptamers, expressed as % of injected dose (ID) per mg of tissue, in tissues indicated was determined at 30 min and 60 min after the agent administration using ELISA. Data are means±SEM (n=3).
To evaluate the advantage of positive transferrin-modified aptamers over their negative transferrin-modified counterparts in brain uptake, the biodistribution of aptamers with four various structures (transferrin+/EpCAM+, transferrin+/EpCAM−, transferrin−/EpCAM+, transferrin−/EpCAM−) were studied at 30 min and 60 min after a single i.v. injection of these agents at a dosage of 40 nmol/Kg into NOD/SCID mice.

The next data set concerns HEY cells. The data set can be described thus: Confocal microscopy internalisation into HEY cells. Type of data set: cell-based, human. Here is the method:
Confocal microscopy was used as a means of visualising aptamer internalisation into the cells. Both aptamers and cells were prepared in the same manner as described above before they were mixed and allowed to incubate at 37° C. The aptamers were used at a concentration of 200 nM and were allowed to incubate for 60 minutes. The concentration for the conjugate (bifunctional) aptamers was 400 nM and these were incubated with the cells for 120 minutes. Ten minutes prior to end of incubation, 2 μL of Hoechst nuclear stain (10 mg/mL) was added to cells. Cells were then washed three times with 100 μL of PBS as described above and resuspended in 20 μL (8×10^5 cells/well) in an 8-chambered slide (Lab-Tek II, Nunc) for visualisation. Cells were incubated in blocking buffer for 60 mins followed by resuspension in binding buffer containing the aptamer and incubated for 60 mins at 37° C. Bisbenzimide Hoechst 33342 (3 mg/ml) (Sigma) was added to the cells during the final 10 min of incubation. The aptamer solution was removed and the cells were washed three times for 5 min each in PBS prior to visualisation using a FluoView FV10i laser scanning confocal microscope (Olympus).
As with the anti-TfR single aptamers, it was necessary to ensure that the binding that had been observed could be attributed to cellular internalisation rather than surface attachment. This was done in a similar manner as before. […]

The conditions of data set [2]: mouse, in vivo.

Read-outs that look alike come from different tables or passages of the source. [invdT] = inverted (3'-3') thymidine; {TYE665} = TYE665 fluorescent dye

“5′-GCGCGGTACCGCGCTAACGGAGGTTGCGTCCGT-3′ (GCGCGGTACCGCGCTAACGGAGGTTGCGTCCGN; listed as DNA, chemistry not given here) [Bi3]”: in data set [1] (30 min), the “Accumulation in brain, fold higher than transferrin−/EpCAM+” value is reported as 3.1 fold and the “Accumulation in brain, fold higher than transferrin−/EpCAM−” value worked out at 12.2 fold. For the same substance, in data set [1] (60 min), the “Accumulation in brain, fold higher than transferrin−/EpCAM+” value stood at 2.5 fold and the “Accumulation in brain, fold higher than transferrin−/EpCAM−” value is 10.8 fold.

Take “Bi1: aptamer conjugate based on TfR1 and scrambled EpCAM binding loop, negative control, SEQ ID NO:8 (GCGCGTGCACGCGCTAACGGATTCCTTTTCCGN; listed as DNA, further chemistry not given here)”: the “Internalisation into EpCAM-positive HEY cell line” value in the data set with HEY cells (conjugate aptamers, 400 nM, two hour) is on record as “observed to internalise”. In addition, in data set [2], the “Fluorescent signal in dissected brain” value is reported as “no signal”.

Consider “TfR3: version of TfR1 with scrambled binding loop sequence, SEQ ID NO:6 (DNA GCGTGGTACCACGC; DNA, 5' {TYE665}, 3' [invdT], backbone not given here)”, for which, in the data set with HEY cells, the “Internalisation of anti-TfR aptamer into HEY cells” value is listed as “not detected”.

The values above are taken from patent publication US10577610B2, “EpCAM aptamers and conjugates thereof” (Deakin University, priority 2015, dated 2020).
